According to patent US6696483B2, “Inhibitors of angiogenesis and tumor growth for local and systemic administration” (OncoPharmaceutical, Inc., priority 2000, dated 2004):

How the values were obtained:
[1] = test system: LL/2 (Lewis lung carcinoma) tumors; assay: In vivo efficacy in mice carrying LL/2 (Lewis lung carcinoma) tumors; set-up: species or system B6D2F1 mice
Description: (§1) For Examples 1-3, the pharmaceutical formulations were prepared just prior to use. Various amounts of brefeldin A (BFA) (mg of drug/kg animal's body weight) were weighed out, and solvent (varying amounts of ethanol in saline) was then added. The mixtures were either vortexed (mechanical mixing) or sonicated until the drug was either completely dissolved or only a very small amount appeared to settle in the bottom the test tube.
(§2) In vivo efficacy was determined using either inbred C3H or hybrid B6D2F1 mice carrying RIF-1 (radiation induced firbrosarcoma-1) or LL/2 (Lewis lung carcinoma) tumors, respectively. The tumor cells were kept in a CO2/O2 atmosphere at 37° C., and grown in monolayers. When confluent, cells were rinsed with ice-cold phosphate buffered ethylenediamine tetraacetic acid (EDTA), followed by trypsin/EDTA treatment for about 3 minutes at 37° C. The cells were then dispersed by the addition of medium with serum and spun down using a centrifuge, then washed once in phosphate-buffered saline (PBS) prior to suspending at the desired density (cells/ml) in sterile Hank's balanced salt solution (HBSS). The cells were then inoculated subcutaneously (s.c.) with either a 100 μl or 50 μl injection on one flank of each mouse to provide the desired number of cells (1.25×10^5, 2.5×10^5 or 5.0×10^5) per site.
(§3) Five to ten days after inoculation with the tumor cells, treatment was initiated with either solvent alone for control groups, or solvent with BFA for the treated group. The mice were treated daily for one to two weeks either intraperitoneally (i.p.) or intravenously (i.v.). The mice (weighing approximately 25 g each) were observed daily for the absence or presence of a tumor, as well as for signs of gross toxicity such as weight loss, hair loss, lethargy, and/or dehydration. The body weight for each mouse was recorded daily until the end of treatment. At the termination of treatment, mice were euthanized, and their tumors removed and stored in formalin for sectioning and staining in future studies. In some experiments, organs such as the kidney, spleen, liver, and brain were also stored in formalin (10%) for future histological analysis of organ toxicity.
The toxicity and efficacy of brefeldin A (BFA, 11 mg/kg) in 10% ethanol (in saline) were determined in B6D2F1 mice. On Day 0, mice were inoculated on one flank with 1.25×10^5 LL/2 tumor cells in 50 μl liquid carrier. […]
All mice were observed daily for signs of gross toxicity and the absence or presence of tumor growth. […] Efficacy was determined by delay in the appearance of the tumor in the experimental group relative to control.
(§4) The efficacy of brefeldin A (BFA, 12 mg/kg) in 10% ethanol (in saline) was evaluated in B6D2F1 mice with a higher tumor cell burden than used in Example 1. […]

[2] = Gross toxicity and organ histology in LL/2 tumor-bearing mice; format: in vivo, B6D2F1 mice
Description: as §3
The toxicity and efficacy of brefeldin A (BFA, 11 mg/kg) in 10% ethanol (in saline) were determined in B6D2F1 mice. On Day 0, mice were inoculated on one flank with 1.25×10^5 LL/2 tumor cells in 50 μl liquid carrier. Five days after inoculation with the tumor cells, mice were randomized into control and treated groups. The mice received daily treatments (0.2 ml, i.p.) for two weeks with either 10% ethanol in phosphate-buffered saline (control) or 10% ethanol in phosphate-buffered saline with BFA (treated). Each mouse in the treated group received a total dose of 0.28 mg of BFA daily.
All mice were observed daily for signs of gross toxicity and the absence or presence of tumor growth. In addition, all mice were weighed daily. […] Efficacy was determined by delay in the appearance of the tumor in the experimental group relative to control.
as §4
All mice were observed daily for signs of gross toxicity and the absence or presence of tumor growth. […] Efficacy was determined by delay in the appearance of tumor in the experimental group relative to control.

RIF-1 tumors = assay: In vivo efficacy in mice carrying RIF-1 (radiation induced fibrosarcoma-1) tumors; set-up: species or system C3H mice; conditions: Example 3
Description: as §1, §2
Five to ten days after inoculation with the tumor cells, treatment was initiated with either solvent alone for control groups, or solvent with BFA for the treated group. The mice were treated daily for one to two weeks either intraperitoneally (i.p.) or intravenously (i.v.). […] The body weight for each mouse was recorded daily until the end of treatment. […]
The efficacy of a lower dose of BFA (8 mg/kg), in a lower concentration of ethanol (1.0%) in phosphate-buffered saline, relative to Examples 1 and 2 was determined. […]
(§5) All mice were observed daily for signs of gross toxicity and the absence or presence of tumor growth. […] Efficacy was determined by tumor growth delay as evidenced by the size and appearance of the tumor in the treated group relative to control.

[3] = Gross toxicity in RIF-1 tumor-bearing mice; format: in vivo, C3H mice; conditions: Example 3; 8 mg/kg i.v. daily for eight days
Description: as §3
On Day 0, C3H mice were inoculated on one flank (s.c.) with 2.5×10^5 RIF-1 tumor cells in 50 μl liquid carrier. Ten days following tumor cell inoculation, mice were randomized into control and treated groups. […]
as §5

[4] = test system: Human umbilical vein endothelial cells (HUVECs); assay: In vitro capillary tube formation assay on Matrigel; format: cell-based; conditions: tested concentrations of 4.0 nM and above (4.0, 40, 100, 400 nM); 18 hours
Description: The in vitro influence of brefeldin A on angiogenesis was evaluated. Human umbilical vein endothelial cells (HUVECs) were cultured in medium EBM-2 complete™ (BioWhittaker, Inc., Baltimore, Md.). Matrigel® (200 μl, synthetic basement membrane substrate) was pipetted gently to avoid air bubbles on the surface of a 48-well plate. Following application of Matrigel® substrate, the plate was placed in an incubator at 37° C. for 30 minutes to promote gelling. HUVECs were harvested from tissue culture flasks, counted, and diluted to 15×10^4/ml. The cell suspension (200 μl) was added to the Matrigel® substrate, such that the final concentration was 30,000 cells/well. Two wells/concentration were used. For evaluation of antiangiogenic activity, a 0.4 mM BFA stock (in dimethyl sulfoxide, DMSO) was diluted to a final concentration of 400, 100, 40, 4.0, and 0.4 nM before adding cells. The final DMSO concentration was 0.02%. […] To evaluate capillary tube formation, plates were viewed under phase contrast low magnification (10×), a photo reticule was used to define the area, and the capillary tube network was counted within the designated area. Only complete tubes that were inside the rectangle were counted.
Data were expressed as percent of complete capillary tube formation relative to untreated control cultures incubated under the same conditions (control=100%). […]

[5] = test system: rat aortic ring explant cultures; assay: Ex vivo rat aortic ring explant assay (microvessel outgrowth); format: cell-based, Sprague-Dawley rats; conditions: tested concentrations of 200 nM and above (200, 400, 1000 nM); Day 7; average of three trials
Description: The ex vivo influence of brefeldin A on angiogenesis was evaluated as follows. Male Sprague-Dawley rats weighing approximately 250 g were anesthetized and their thoracic aortas removed carefully to avoid damaging the vessel wall. Aortas were rinsed in serum-free endothelial cell basal medium, the surrounding adventitia removed and cleaned, and the vessels cut into two millimeter (mm) concentric rings. Each ring was embedded in freshly prepared rattail collagen. Following gelation for 30 minutes at 37° C., collagen gel cultures were transferred to 16 mm wells (4 well plate), each containing 0.5 ml of serum free (MCBD 131) medium. Brefeldin A was dissolved in DMSO and mixed with serum free medium at final concentrations of 40 nM 100 nM, 200 nM, 400 nM, and 1000 nM immediately prior to the addition of media to collagen-embedded rat aortic ring explant cultures. The final concentration of DMSO in treated and control cultures was 0.02%. Explant cultures were incubated at 35.5° C. in a 5% CO2 humidified atmosphere, and the media replaced every two days over the course of the 8-10 day study. Visual counts of microvessel outgrowths from replicate explant cultures were performed using bright field microscopy during microvessel peak growth (Day 7).
Data were expressed as percent inhibition of microvessel growth relative to vehicle-treated control cultures (FIG. 8). […]

[6] = Example 2, 12 mg/kg i.p. daily for two weeks, 5.0×10^5 LL/2 cells

Compound: C[C@H]1CCC/C=C/[C@@H]2C[C@H](O)C[C@H]2[C@H](O)/C=C/C(=O)O1 [brefeldin A]
- presence of tumor (gross observation, FIG. 1) ([1]; Example 1, 11 mg/kg i.p. daily for two weeks in 10% ethanol, 1.25×10^5 LL/2 cells): no evidence of tumor was observed
- tumor at inoculation site (skin sample histology, FIG. 2A) ([1]; Example 1, 11 mg/kg i.p. daily for two weeks, after final treatment): No evidence of tumor at the injection site
- tumor growth delay (FIG. 3) [1, 6]: significant tumor growth delay
- tumor size reduction relative to control group [1, 6]: at least 25%
- gross toxicities (weight loss, hair loss, lethargy, dehydration) ([2]; Example 1, 11 mg/kg i.p. daily for two weeks): not observed
- toxicity-related effects in brain, kidney, liver, spleen ([2]; Example 1, 11 mg/kg i.p. daily for two weeks, H&E histology): no toxicity-related effects
- gross toxicity (weight loss (FIG. 4), hair loss, lethargy) ([2]; Example 2, 12 mg/kg i.p. daily for two weeks): no gross toxicity
- vessel density in tumor sections (qualitative) (RIF-1 tumors; 8 mg/kg i.v. daily for eight days): less vessel density
- tumor size relative to control (FIG. 6) (RIF-1 tumors; 8 mg/kg i.v. daily for eight days in 1.0% ethanol, 2.5×10^5 RIF-1 cells): significantly smaller
- tumor invasiveness on harvesting (RIF-1 tumors; 8 mg/kg i.v. daily for eight days, control tumors penetrated muscle): remained relatively localized and relatively easy to remove
- gross toxicity (weight loss, hair loss, lethargy, dehydration) [3]: no gross toxicity was observed
- inhibition of angiogenesis (complete capillary tube formation relative to untreated control) [4]: more than 50%
- inhibition of angiogenesis (microvessel growth relative to vehicle-treated control) [5]: more than 50%
